Reference: ChEMBL document CHEMBL1671678, “Probing the antimalarial mechanism of artemisinin and OZ277 (arterolane) with nonperoxidic isosteres and nitroxyl radicals” (Antimicrob Agents Chemother, 2010)
Converted amounts (≈) assume the structure as drawn.

Experiments:
Plasmodium falciparum [1] = assay: Antimalarial activity against Plasmodium falciparum K1 by [3H]hypoxanthine incorporation assay; format: functional, organism-based
Plasmodium falciparum [2] = assay: Antimalarial activity against Plasmodium falciparum NF54 by [3H]hypoxanthine incorporation assay; format: functional, organism-based
Plasmodium falciparum [3] = assay: Antimalarial activity against Plasmodium falciparum NF54 by [3H]hypoxanthine incorporation assay in presence 1:3 ratio of compound to carbaOZ277; format: functional
Plasmodium falciparum [4] = assay: Antimalarial activity against Plasmodium falciparum NF54 by [3H]hypoxanthine incorporation assay in presence 3:1 ratio of compound to deoxyartemisinin; format: functional
Plasmodium falciparum [5] = assay: Antimalarial activity against Plasmodium falciparum NF54 by [3H]hypoxanthine incorporation assay in presence 1:1 ratio of compound to deoxyartemisinin; format: functional
Plasmodium falciparum [6] = assay: Antimalarial activity against Plasmodium falciparum NF54 by [3H]hypoxanthine incorporation assay in presence 1:3 ratio of compound to deoxyartemisinin; format: functional
Plasmodium falciparum [7] = assay: Antimalarial activity against Plasmodium falciparum NF54 by [3H]hypoxanthine incorporation assay in presence of 3:1 ratio of compound to 4-amino-2,2,6,6,-tetramethyl-1-piperidinyloxy; format: functional
Plasmodium falciparum [8] = assay: Antimalarial activity against Plasmodium falciparum NF54 by [3H]hypoxanthine incorporation assay in presence of 1:1 ratio of compound to 4-amino-2,2,6,6,-tetramethyl-1-piperidinyloxy; format: functional
Plasmodium falciparum [9] = assay: Antimalarial activity against Plasmodium falciparum NF54 by [3H]hypoxanthine incorporation assay in presence of 1:3 ratio of compound to 4-amino-2,2,6,6,-tetramethyl-1-piperidinyloxy; format: functional
Plasmodium falciparum [10] = assay: Antimalarial activity against Plasmodium falciparum NF54 by [3H]hypoxanthine incorporation assay in presence of 3:1 ratio of compound to 4-carboxy-2,2,6,6,-tetramethyl-1-piperidinyloxy; format: functional
Plasmodium falciparum [11] = assay: Antimalarial activity against Plasmodium falciparum NF54 by [3H]hypoxanthine incorporation assay in presence of 1:1 ratio of compound to 4-carboxy-2,2,6,6,-tetramethyl-1-piperidinyloxy; format: functional
Plasmodium falciparum [12] = assay: Antimalarial activity against Plasmodium falciparum NF54 by [3H]hypoxanthine incorporation assay in presence of 1:3 ratio of compound to 4-carboxy-2,2,6,6,-tetramethyl-1-piperidinyloxy; format: functional
Plasmodium falciparum [13] = assay: Antimalarial activity against Plasmodium falciparum NF54 by [3H]hypoxanthine incorporation assay in presence of 3:1 ratio of compound to 4-hydroxy-2,2,6,6,-tetramethyl-1-piperidinyloxy; format: functional
Plasmodium falciparum [14] = assay: Antimalarial activity against Plasmodium falciparum NF54 by [3H]hypoxanthine incorporation assay in presence of 1:1 ratio of compound to 4-hydroxy-2,2,6,6,-tetramethyl-1-piperidinyloxy; format: functional
Plasmodium falciparum [15] = assay: Antimalarial activity against Plasmodium falciparum NF54 by [3H]hypoxanthine incorporation assay in presence of 1:3 ratio of compound to 4-hydroxy-2,2,6,6,-tetramethyl-1-piperidinyloxy; format: functional
Plasmodium falciparum [16] = assay: Antimalarial activity against Plasmodium falciparum NF54 by [3H]hypoxanthine incorporation assay in presence of 3:1 ratio of compound to 4-oxo-2,2,6,6,-tetramethyl-1-piperidinyloxy; format: functional
Plasmodium falciparum [17] = assay: Antimalarial activity against Plasmodium falciparum NF54 by [3H]hypoxanthine incorporation assay in presence of 1:1 ratio of compound to 4-oxo-2,2,6,6,-tetramethyl-1-piperidinyloxy; format: functional
Plasmodium falciparum [18] = assay: Antimalarial activity against Plasmodium falciparum NF54 by [3H]hypoxanthine incorporation assay in presence of 1:3 ratio of compound to 4-oxo-2,2,6,6,-tetramethyl-1-piperidinyloxy; format: functional
Plasmodium falciparum [19] = assay: Antimalarial activity against Plasmodium falciparum NF54 by [3H]hypoxanthine incorporation assay in presence of 3:1 ratio of compound to 2,2,6,6,-tetramethyl-1-piperidinyloxy; format: functional
Plasmodium falciparum [20] = assay: Antimalarial activity against Plasmodium falciparum NF54 by [3H]hypoxanthine incorporation assay in presence of 1:1 ratio of compound to 2,2,6,6,-tetramethyl-1-piperidinyloxy; format: functional
Plasmodium falciparum [21] = assay: Antimalarial activity against Plasmodium falciparum NF54 by [3H]hypoxanthine incorporation assay in presence of 1:3 ratio of compound to 2,2,6,6,-tetramethyl-1-piperidinyloxy; format: functional
Plasmodium falciparum [22] = assay: Antimalarial activity against Plasmodium falciparum NF54 by [3H]hypoxanthine incorporation assay in presence of carbaOZ277; format: functional
Plasmodium falciparum [23] = assay: Antimalarial activity against Plasmodium falciparum NF54 by [3H]hypoxanthine incorporation assay in presence of deoxyartemisinin; format: functional
Plasmodium falciparum [24] = assay: Antimalarial activity against Plasmodium falciparum NF54 by [3H]hypoxanthine incorporation assay in presence of 4-amino-2,2,6,6,-tetramethyl-1-piperidinyloxy; format: functional
Plasmodium falciparum [25] = assay: Antimalarial activity against Plasmodium falciparum NF54 by [3H]hypoxanthine incorporation assay in presence of 4-carboxy-2,2,6,6,-tetramethyl-1-piperidinyloxy; format: functional
Plasmodium falciparum [26] = assay: Antimalarial activity against Plasmodium falciparum NF54 by [3H]hypoxanthine incorporation assay in presence of 4-hydroxy-2,2,6,6,-tetramethyl-1-piperidinyloxy; format: functional
Plasmodium falciparum [27] = assay: Antimalarial activity against Plasmodium falciparum NF54 by [3H]hypoxanthine incorporation assay in presence of 4-oxo-2,2,6,6,-tetramethyl-1-piperidinyloxy; format: functional
Plasmodium falciparum [28] = assay: Antimalarial activity against Plasmodium falciparum NF54 by [3H]hypoxanthine incorporation assay in presence of 2,2,6,6,-tetramethyl-1-piperidinyloxy; format: functional
Plasmodium falciparum [29] = assay: Antimalarial activity against Plasmodium falciparum NF54 by [3H]hypoxanthine incorporation assay in presence 1:1 ratio of compound to carbaOZ277; format: functional
Plasmodium falciparum [30] = assay: Antimalarial activity against Plasmodium falciparum NF54 by [3H]hypoxanthine incorporation assay in presence 3:1 ratio of compound to carbaOZ277; format: functional
[31] = Plasmodium falciparum, K1, read-out: IC50

`CC(C)(N)CNC(=O)CC1CC[C@]2(CC1)OC[C@]1(O2)C2CC3CC(C2)CC1C3` (stereo partly drawn) gave an IC50 (Plasmodium falciparum [1]; [31]) of 12 µg/mL (≈ 30.7 µM).

`CC1(C)CC(O)CC(C)(C)N1[O]` [TEMPOL] showed an IC50 (Plasmodium falciparum [1]; [31]) of 19 µg/mL (≈ 110 µM).

For `CC1(C)CC(C(=O)O)CC(C)(C)N1[O]`, the IC50 (Plasmodium falciparum [2]) was 0.00054 µg/mL (≈ 0.0027 µM) and the IC50 (Plasmodium falciparum [1]) was 0.00057 µg/mL (≈ 0.00285 µM).

`CC(C)(N)CNC(=O)C[C@H]1CC[C@]2(CC1)OO[C@]1(O2)C2CC3CC(C2)CC1C3` [OZ277] showed an FIC50 (Plasmodium falciparum [3]) of 1.2, an FIC50 (Plasmodium falciparum [4]) of 1.2 and an FIC50 (Plasmodium falciparum [5]) of 1.3. It also gave an FIC50 (Plasmodium falciparum [6]) of 1.4, an FIC50 (Plasmodium falciparum [7]) of 1.7 and an FIC50 (Plasmodium falciparum [8]) of 2.4. The FIC50 (Plasmodium falciparum [9]) was 2.3, the FIC50 (Plasmodium falciparum [10]) was 1.2 and the FIC50 (Plasmodium falciparum [11]) was 1.3. The FIC50 (Plasmodium falciparum [12]) was 1.3, the FIC50 (Plasmodium falciparum [13]) was 1.2 and the FIC50 (Plasmodium falciparum [14]) was 1.3. It also gave an FIC50 (Plasmodium falciparum [15]) of 1.5, an FIC50 (Plasmodium falciparum [16]) of 1.1 and an FIC50 (Plasmodium falciparum [17]) of 1.3. It also gave an FIC50 (Plasmodium falciparum [18]) of 1.4, an FIC50 (Plasmodium falciparum [19]) of 1.2 and an FIC50 (Plasmodium falciparum [20]) of 1.5. It also gave an FIC50 (Plasmodium falciparum [21]) of 1.8, an FIC50 (Plasmodium falciparum [22]) of 1.3 and an FIC50 (Plasmodium falciparum [23]) of 1.2. The FIC50 (Plasmodium falciparum [24]) was 2.1, the FIC50 (Plasmodium falciparum [25]) was 1.3 and the FIC50 (Plasmodium falciparum [26]) was 1.3. For the same compound, the FIC50 (Plasmodium falciparum [27]) was 1.3, the FIC50 (Plasmodium falciparum [28]) was 1.5 and the FIC50 (Plasmodium falciparum [29]) was 1.2. The FIC50 (Plasmodium falciparum [30]) was 1.1.

Compound `CC1(C)CC(N)CC(C)(C)N1[O]` [TEMPAMINE] has an IC50 (Plasmodium falciparum [1]; [31]) of 16 µg/mL (≈ 93.4 µM).

Work on `C[C@@H]1CC[C@H]2[C@@H](C)C(=O)O[C@@H]3O[C@@]4(C)CC[C@@H]1[C@]32OO4` [ARTEMISININ] yielded an FIC50 (Plasmodium falciparum [3]) of 1.1, an FIC50 (Plasmodium falciparum [4]) of 1 and an FIC50 (Plasmodium falciparum [5]) of 1.1. It also gave an FIC50 (Plasmodium falciparum [6]) of 1.2, an FIC50 (Plasmodium falciparum [7]) of 2.8 and an FIC50 (Plasmodium falciparum [8]) of 1.9. The FIC50 (Plasmodium falciparum [9]) was 1.3, the FIC50 (Plasmodium falciparum [10]) was 1.2 and the FIC50 (Plasmodium falciparum [11]) was 1.4. It also gave an FIC50 (Plasmodium falciparum [12]) of 1.4, an FIC50 (Plasmodium falciparum [13]) of 2.5 and an FIC50 (Plasmodium falciparum [14]) of 4. The FIC50 (Plasmodium falciparum [15]) was 1.8, the FIC50 (Plasmodium falciparum [16]) was 2 and the FIC50 (Plasmodium falciparum [17]) was 2.6. For the same compound, the FIC50 (Plasmodium falciparum [18]) was 2.3, the FIC50 (Plasmodium falciparum [19]) was 2.2 and the FIC50 (Plasmodium falciparum [20]) was 2.1. It also gave an FIC50 (Plasmodium falciparum [21]) of 1.3, an FIC50 (Plasmodium falciparum [22]) of 1.1 and an FIC50 (Plasmodium falciparum [23]) of 1.1. For the same compound, the FIC50 (Plasmodium falciparum [24]) was 2, the FIC50 (Plasmodium falciparum [25]) was 1.3 and the FIC50 (Plasmodium falciparum [26]) was 2.8. The FIC50 (Plasmodium falciparum [27]) was 2.3, the FIC50 (Plasmodium falciparum [28]) was 1.9 and the FIC50 (Plasmodium falciparum [29]) was 1.1. The FIC50 (Plasmodium falciparum [30]) was 1.1.

With `C[C@@H]1CC[C@H]2[C@@H](C)C(=O)O[C@@H]3O[C@@]4(C)CC[C@@H]1[C@]32O4` [DEOXYARTEMISININ] the IC50 (Plasmodium falciparum [1]; [31]) was 34 µg/mL (≈ 128 µM).

`CC1(C)CC(=O)CC(C)(C)N1[O]` was tested, and the IC50 (Plasmodium falciparum [1]; [31]) was 2.2 µg/mL (≈ 12.9 µM).
